From patent US4620930A, “Process for rapidly determining biological toxicity of wastewater” (priority 1985, dated 1986)
Converted amounts (≈) assume the structure as drawn. Read-outs that look alike come from different tables or passages of the source.

Columns and labels:
[1] = system: PHENOBAC bacterial culture; experiment: microbe, parasite or virus in culture; type: cell-based, PHENOBAC mutant bacteria containing Pseudomonas; conditions: for IC50: 20 min, read-out: concentration resulting in an inhibition of the bacteria of about 50%
Source text: In the rapid toxicity test described herein the dried culture first undergoes rehydration and then respiration development when contacted with aqueous system containing organic material.
In carrying out the test process, a preselected amount of the dried bacterial culture is first charged to a preselected amount of a standardized substrate for the purpose of determining a standard of respiration or activity of the culture. […] Typically, the quantity of bacterial culture is selected to give a good rate of oxygen decline, e.g., a decline of 2-5 mg/liter oxygen over a twenty minute interval. For reference purposes from 5 to 15 grams of culture/500 ml. of sample solution will be sufficient. The standardized substrate used in the test procedure is […] or another standardized medium of known composition. […] During this period, this oxygen respiration activity is measured by measuring the dissolved oxygen content in the substrate. The dissolved oxygen content then is plotted as a function of time. The rate of decline of dissolved oxygen content in the substrate is ascertained at some preselected time where the rate of dissolved oxygen decline is substantial and where the residual oxygen in the sample of greater than 0.5 mg/l oxygen. With bacterial cultures of the type described, this preselected time can be within the range of 10 to 30 minutes. […] Although numerous methods can be used to ascertain the rate of decline of oxygen, the simplest is to determine that rate from a graph by taking the slope (y/x) of the curve at the preselected time.
The organic quality of sewage, in terms of organic content or toxic substance, is measured by repeating the exact same process, using the test sample in place of the standardized sample. In many instances, particularly where the test sample contains a substantial amount of toxic material or organic matter, the test sample may be diluted with distilled water to provide a more accurate measurement. This is done in those cases where the slope of the curve is small. In any event, the test substrate or wastewater to be tested is added to the test vessel containing the bacterial culture and the dissolved oxygen content measured as a function of time. The rate of decline in dissolved oxygen content for the test substrate or wastewater is then determined at the same preselected time utilized for the standard. This rate of decline is then compared to the rate of decline for the standardized substrate. The relative toxicity or inhibition of the test water versus the standardized substrate, can then be calculated by the equation: [formula]
A baseline standard was generated for a bacterial formulation sold under the trademark PHENOBAC by Polybac Corporation by first charging 350 ml of distilled water to a first vessel. The water was then saturated with oxygen by sealing the vessel which was half full of air and shaking it rapidly.

[2] = system: PHENOBAC bacterial culture; experiment: microbe, parasite or virus in culture; conditions: Pseudomonas, pH 7, read-out: percent inhibition, with prehydration
Procedure: A baseline standard was generated for a bacterial formulation sold under the trademark PHENOBAC by Polybac Corporation by first charging 350 ml of distilled water to a first vessel. The water was then saturated with oxygen by sealing the vessel which was half full of air and shaking it rapidly. The dissolved oxygen content of the sample was then measured to determine if the oxygen level exceeded 5.0 mg/l at a temperature of 20° C. (If the level was above 5.0 mg/l, it was assumed the sample was sufficiently saturated with oxygen to proceed.) After oxygen saturation, the water was charged to a second vessel containing 8 grams of the dried granular PHENOBAC mutant bacteria containing Pseudomonas and 0.6 grams of potassium bicarbonate. The latter acted to buffer the pH in the vessel to approximately 7. A dissolved oxygen probe was then inserted into the vessel and the contents of the vessel stirred while measuring the dissolved oxygen concentration in the vessel. Several measured data points were recorded in one to two minute intervals for a period of about 30 minutes. These values were plotted with dissolved oxygen in mg/liter represented on the ordinant and time (minute) plotted represented on the abscissa. The baseline standard curves are shown as Curves A and J on FIGS. 1 and 2 respectively.
A series of tests was conducted for the purpose of determining the relative toxicity of various phenolic solutions. The general test technique involved the utilization of test samples containing various known concentrations of toxic material, e.g., phenol. The test sample was buffered to a pH of 7 by the addition of sodium hydroxide or sulphuric acid. Measurement of pH using pH paper was found most convenient. Once the pH of the solution was at the appropriate level, the sample was then aerated by placing the sample in a vessel half full of air, sealing the vessel and shaking the vessel vigorously for several minutes. The oxygen saturated 350 ml. solution having a dissolved oxygen content greater than 5.0 mg/l was then introduced to a test vessel containing 8 grams of dried granular PHENOBAC bacterial culture and 0.5 g of sodium bicarbonate. The dissolved oxygen concentration in the closed sealed vessel was then measured and plotted for a series of phenol concentrations in FIG. 1 in the same manner as the baseline standard in Example 1 and also illustrated in FIG. 1. Each curve, B-G, is labeled with respect to the phenol concentration present during the test. Curve A represents the baseline standard. From these curves one can calculate the rate of decline in dissolved oxygen concentration observed at 20 minutes for each phenol concentration. The percent inhibition is then calculated from the various dissolved oxygen decline curves for each phenol concentration in FIG. 1 according to the equation: [formula]
As in Examples 1 and 2, the general technique for these tests involved pretreatment of the wastewater or test solution to achieve a pH of 7.0 and an oxygen saturation of at least 5.0 mg/l. However, prior to adding the test solution to the test vessel containing the dried PHENOBAC culture, the bacteria were allowed to rehydrate 10 minutes in clean water and then the test solution containing phenol was added to the test vessel. In this manner, the initial rehydration of the bacterial populations was carried out in the absence of the chemical being tested. This is the customary prior art procedure. After rehydration, the bacteria were then exposed to the test chemical and its effect on bacterial respiration evaluated.

[3] = Pseudomonas, pH 7, read-out: percent inhibition, preferred contact rehydration

In the case of `[Cu+2]` [copper, copper (+2) ion], the “concentration resulting in an inhibition of the bacteria of about 50%” value ([1]; from FIG. 3, rate of dissolved oxygen decline at 20 minutes versus baseline standard) was 29 mg/L.
With `C=O` [formaldehyde] the IC50 ([1]; Pseudomonas) was about 140 µg/mL (≈ 4.66 mM).
In the case of `Oc1ccccc1` [phenol], the IC50 ([1]; Pseudomonas) was about 1600 µg/mL (≈ 17 mM), the inhibition at 312 µg/mL [1, 3] was 12% and the inhibition at 625 µg/mL [1, 3] was 22%. It also gave an inhibition at 1250 µg/mL [1, 3] of 37%, an inhibition at 2500 µg/mL [1, 3] of 68% and an inhibition at 5000 µg/mL [1, 3] of 87%. The inhibition at 10000 µg/mL [1, 3] was 98%, the “inhibition or sensitivity of the bacteria, direct contact rehydration compared with prehydration in water” value ([1]; rehydrated in direct contact with the test phenol solutions rather than in water first) was “greater inhibition or sensitivity” and the inhibition at 312 µg/mL [2] was 10%. For the same molecule, the inhibition at 625 µg/mL [2] was 17%, the inhibition at 1250 µg/mL [2] was 33% and the inhibition at 2500 µg/mL [2] was 57%. The inhibition at 5000 µg/mL [2] was 80% and the inhibition at 10000 µg/mL [2] was 93%.
